Source: patent EP1441698B1, “FLASHMELT ORAL DOSAGE FORMULATION” (Otsuka Pharmaceutical Co., Ltd., priority 2001, dated 2003)

Test: Hygroscopicity: water content of crystals after storage in a desiccator (e.g. Karl Fischer method)
Assay type: physicochemical
Settings: after 24 hours inside a dessicator at 60°C and a humidity of 100%
Description: Aripiprazole Anhydride Crystals B of the present invention have low hygroscopicity. For example, Aripiprazole Anhydride Crystals B of the present invention maintain a water content of 0.4% or less after 24 hours inside a dessicator set at a temperature of 60°C and a humidity of 100%.
Well-known methods of measuring water content can be used as long as they are methods commonly used for measuring the water content of crystals. For example, a method such as the Karl Fischer method can be used.

A water content of at most 0.4% was found for O=C1CCc2ccc(OCCCCN3CCN(c4cccc(Cl)c4Cl)CC3)cc2N1 [Aripiprazole Anhydride Crystals B, aripiprazole] in this work.
